{
  "source": "paper PMC4335513",
  "about": "(Critical Care, 2015)",
  "key": {"[1]": {"parameters": "AUC 0–24: unit not given beside the values", "settings": "general patients; mean (%CV); ref Wurthwein et al. [26]; cited from earlier work", "excerpt": "Table 2 Comparison of exposures achieved in this study with other studies (mean (%CV)) | column: Caspofungin / Wurthwein et al. (general patients)"}, "[2]": {"assay": "Clinical outcome of therapy and mortality at 30 days in ICU patients", "format": "in vivo, human", "settings": "for patients with positive clinical outcome: completion of treatment course without change or addition of antifungal therapy; for 30-day mortality: died by day 30; for patients with indeterminate clinical outcome: outcome of therapy could not be judged", "description": "(§1) Data collection was performed by trained staff at each participating center and entered into a case report form. Various demographic and clinical data were collected, including age, gender, height, weight, admission diagnosis, presence of extracorporeal circuits (for example, renal replacement therapy), clinical outcome of infection, and mortality at 30 days. A positive clinical outcome of therapy was defined as completion of treatment course without change or addition of antifungal therapy and with no additional antifungals commenced within 48 hours of discontinuation of the therapy, and if the outcome of therapy could not be judged for any reason, it was recorded as indeterminate. Also, organ-function data (including renal function: serum creatinine concentration during studied dosing interval; 24-hour measured urinary creatinine clearance (CrCL) (where available), antibiotic dosing (dose and frequency, time of dosing and sampling, day of antibiotic therapy), and infection data (including known or presumed pathogen and pathogen MIC) were collected."}, "[3]": {"settings": "surgical ICU patients; ref Nguyen et al. [28]; cited from earlier work", "excerpt": "However, variability was higher compared with healthy volunteers (Table 2). This may be attributed to underlying pathophysiological changes that occur in ICU patients. The observed anidulafungin variability in AUC0–24, Cmin, and Cmax was not as high as observed in the study by Liu et al., who recruited a larger cohort of surgical ICU patients but was higher than variability observed in healthy volunteers (Table 2). The PK parameter estimates were ..."}, "[4]": {"parameters": "AUC 0–24: unit not given beside the values", "settings": "healthy volunteers; mean (95% CI); ref Stone et al. [27]; cited from earlier work", "excerpt": "Table 2 Comparison of exposures achieved in this study with other studies (mean (%CV)) | column: Caspofungin / Stone et al. [27]^a (healthy volunteers)"}, "[5]": {"assay": "Plasma pharmacokinetics in critically ill ICU patients (DALI study), noncompartmental analysis", "format": "in vivo, human", "description": "The Defining Antibiotic Levels in Intensive care unit patients (DALI) study was a prospective, multicenter PK point-prevalence study. The protocol has been published in detail previously, and the participating investigators are listed in Additional file 1).\nThe choice of antifungal agent and dosing was at the discretion of the treating clinician. Each patient had three blood samples taken: blood sample A was a peak concentration taken 30 minutes after completion of intravenous infusion; blood sample B was a mid-dose blood sample taken 50% of the way through a dosing interval; and blood sample C was a pre-dose concentration taken at the end of a dosing interval (within 30 minutes of the next dose).\nThe stationary phase was a Kinetex C8 (50 × 2.10 mm, 1.7 μm) UHPLC column (Phenomenex, Torrance, CA, USA).\nFor anidulafungin analysis, the supernatant was washed with dichloromethane to remove lipid-soluble components. […] The methods were validated for linearity, LLOQ, matrix effects, precision and accuracy, and stock stability by using the FDA criteria for bioanalysis.\nClearance (CL) was calculated by using the equation Dose/AUC0-∞."}, "[6]": {"parameters": "AUC 0–24: unit not given beside the values", "settings": "ICU patients; mean (%CV); ref Liu et al. [25]; cited from earlier work", "excerpt": "Table 2 Comparison of exposures achieved in this study with other studies (mean (%CV)) | column: Anidulafungin / Liu et al. (ICU patients)"}, "[7]": {"parameters": "AUC 0–24: unit not given beside the values", "settings": "healthy volunteers; mean (%CV); ref Liu et al. [25]; cited from earlier work", "excerpt": "Table 2 Comparison of exposures achieved in this study with other studies (mean (%CV)) | column: Anidulafungin / Liu et al. (healthy volunteers)"}, "[8]": {"settings": "human, in vivo; cited from earlier work"}, "[9]": {"tested_on": "C. albicans", "assay": "Pathogen MIC reported for patient isolate", "format": "cell-based", "settings": "Candida albicans", "description": "as §1"}},
  "note": "Like-named read-outs stand apart in the source and are kept apart here. *1 amine or outer side, *2 acyl side, *3 side chain or, on linkers, in order; H or OH if unused. Where a SMILES comes first, the peptide text is derived from it. Bridges are numbered along the chain shown (N, C = ends). [ ]: non-standard residue; d: D form. The star is where a group is joined. pTerphenylCO(4''-OnC5H11) = CCCCCOc1ccc(-c2ccc(-c3ccc(C(=O)*)cc3)cc2)cc1; Orn(4R-OH,5R-OH) = O=C([C@H](C[C@@H](O)[C@@H](O)N[*:3])N[*:1])[*:2]; hTyr(3S-OH,4S-OH) = N[C@H](C(=O)O)[C@H](O)[C@@H](O)c1ccc(O)cc1; Pro(3S-OH,4S-Me) = C[C@H]1CN[C@H](C(=O)O)[C@H]1O; Hyp = O=C(O)[C@@H]1C[C@@H](O)CN1",
  "data": [
    {"compound": "CC[C@H](C)C[C@H](C)CCCCCCCCC(=O)N[C@H]1C[C@@H](O)[C@@H](NCCN)NC(=O)[C@@H]2[C@@H](O)CCN2C(=O)[C@H]([C@H](O)CCN)NC(=O)[C@H]([C@H](O)[C@@H](O)c2ccc(O)cc2)NC(=O)[C@@H]2C[C@@H](O)CN2C(=O)[C@H]([C@@H](C)O)NC1=O", "note": "[Caspofungin, caspofungin]", "values": [
      {"measurement": "AUC 0–24", "setting": "[1]", "result": "170.0 (34)"},
      {"measurement": "C max", "setting": "[1]", "result": "13.8 (31)"},
      {"measurement": "patients with positive clinical outcome", "setting": "[2]", "result": 43, "unit": "%"},
      {"measurement": "30-day mortality", "setting": "[2]", "result": 29, "unit": "%"},
      {"measurement": "patients with indeterminate clinical outcome", "setting": "[2]", "result": 11, "unit": "%"},
      {"measurement": "Cmin (range observed)", "setting": "[3]", "result": "500 to 4100", "unit": "ng/mL"},
      {"measurement": "AUC 0–24", "setting": "[4]", "result": "97.0 (87–109)"},
      {"measurement": "C max", "setting": "[4]", "result": "12.1 (11–13)"},
      {"measurement": "C min", "setting": "[4]", "result": "1.4 (1.1–1.8)"},
      {"measurement": "AUC 0–24", "setting": "[5]; This study, ICU patients, caspofungin 70 mg (loading dose), 70% sampled on day 1, plasma, UHPLC-MS/MS, mean (%CV)", "result": "52.0 (53)"},
      {"measurement": "C max", "setting": "[5]; This study, ICU patients, caspofungin 70 mg (loading dose), plasma, observed peak, mean (%CV)", "result": "3.9 (55)"},
      {"measurement": "C min", "setting": "[5]; This study, ICU patients, caspofungin 70 mg (loading dose), plasma, observed pre-dose, mean (%CV)", "result": "1.5 (57)"}
    ]},
    {"compound": "CCCCCOc1ccc(-c2ccc(-c3ccc(C(=O)N[C@H]4C[C@@H](O)[C@@H](O)NC(=O)[C@@H]5[C@@H](O)[C@@H](C)CN5C(=O)[C@H]([C@@H](C)O)NC(=O)[C@H]([C@H](O)[C@@H](O)c5ccc(O)cc5)NC(=O)[C@@H]5C[C@@H](O)CN5C(=O)[C@H]([C@@H](C)O)NC4=O)cc3)cc2)cc1", "note": "[Anidulafungin, anidulafungin] ({pTerphenylCO(4''-OnC5H11)}-[Orn(4R-OH,5R-OH)]T[Hyp][hTyr(3S-OH,4S-OH)]T[Pro(3S-OH,4S-Me)]; lactam 1-C)", "values": [
      {"measurement": "AUC 0–24", "setting": "[6]", "result": "93.0 (41)"},
      {"measurement": "C max", "setting": "[6]", "result": "7.7 (56)"},
      {"measurement": "C min", "setting": "[6]", "result": "3.0 (44)"},
      {"measurement": "patients with positive clinical outcome", "setting": "[2]", "result": 67, "unit": "%"},
      {"measurement": "30-day mortality", "setting": "[2]", "result": 11, "unit": "%"},
      {"measurement": "patients with indeterminate clinical outcome", "setting": "[2]", "result": 33, "unit": "%"},
      {"measurement": "AUC 0–24", "setting": "[5]; This study, ICU patients, anidulafungin 100 mg, plasma, UHPLC-MS/MS, linear trapezoidal, mean (%CV), n = 9", "result": "55 (28)"},
      {"measurement": "C max", "setting": "[5]; This study, ICU patients, anidulafungin 100 mg, plasma, observed peak 30 min after end of iv infusion, mean (%CV), n = 9", "result": "3.9 (29)"},
      {"measurement": "C min", "setting": "[5]; This study, ICU patients, anidulafungin 100 mg, plasma, observed pre-dose concentration, mean (%CV), n = 9", "result": "1.8 (30)"},
      {"measurement": "AUC 0–24", "setting": "[7]", "result": "105.0 (22)"},
      {"measurement": "C max", "setting": "[7]", "result": "7.0 (22)"},
      {"measurement": "C min", "setting": "[7]", "result": "3.1 (25)"}
    ]},
    {"compound": "OC(Cn1cncn1)(Cn1cncn1)c1ccc(F)cc1F", "note": "[Fluconazole, fluconazole]", "values": [
      {"measurement": "AUC 0–24", "setting": "[8]", "result": "409 (336–482)"},
      {"measurement": "C max", "setting": "[8]", "result": "25 (22–28)"},
      {"measurement": "patients with positive clinical outcome", "setting": "[2]", "result": 27, "unit": "%"},
      {"measurement": "30-day mortality", "setting": "[2]", "result": 47, "unit": "%"},
      {"measurement": "patients with indeterminate clinical outcome", "setting": "[2]", "result": 40, "unit": "%"},
      {"measurement": "C max", "setting": "[5]; human, in vivo", "result": "20 (14)"},
      {"measurement": "AUC 0–24", "setting": "[5]; human, in vivo, SD", "result": "359 (259)"},
      {"measurement": "MIC", "setting": "[9]", "result": 0.75, "unit": "µg/mL"}
    ]}
  ]
}
